“And” between values parts separate entries of the source, which are not always exact repeats. Equal entries are not always repeated. Peptide text beside a SMILES is read from it.
Text: All subjects who met eligibility criteria were confined to the clinical research unit from […] through Day 3. At admission, physical examination, vital signs, 12 lead ECG and weight were obtained, medical and medication history were updated if necessary, safety blood tests (hematology and chemistry), urinalysis, urine drug screen and an alcohol breath test were repeated and a urine pregnancy test was done for women of childbearing potential.
At each dose level, there were 2 sentinel subjects, (1 active, 1 placebo), who were dosed at least 48 hours in advance of the other subjects in their respective group. Following review of safety data, including physical examination, vital signs, and review of adverse events from the first 2 subjects, enrolment in the cohort continued.
A 12-lead ECG was performed on Day 1, within 60 minutes of infusion start (in triplicate), mid-way through the infusion, at the completion of the infusion, 30 minutes after completion of the infusion and at various timepoints following the end of the infusion.
Vital signs were recorded within 60 minutes pre-dose, at the mid-point of the infusion and post dose vitals were assessed at completion of the infusion, 0.5, 1, 2, 3, 4, 6, 9, 12, 24 and 48 hours post dose, after at least 3 minutes of rest in supine position.
Subjects returned to the study center 7 days after dosing, for the termination visit. A full physical examination, vital signs and weight were obtained, concomitant medications were updated if necessary, safety blood specimens (haematology and chemistry, PT and aPTT) and urine were collected for urinalysis and urine drug screening. A serum pregnancy test was done for women of childbearing potential and a 12-lead ECG was performed.
In this study dose limiting toxicity (DLT) was defined as any drug related ≥Grade 3 AEs occurring despite optimal therapeutic interventions (which included but were not limited to allergic/hypersensitivity reactions, dermatological reactions/infusion site reactions, haematological toxicities such as neutropenia, thrombocytopenia and anaemia and clinical chemistry abnormalities) experienced up to Day 7 (Termination Visit).
(§1) All subjects who received any amount of study drug were included in the safety analysis (Safety population).
The study was a double blinded, randomized, placebo-controlled study. The placebo administered was 0.9% sodium chloride.
On Day 1 (day of dosing), subjects were randomly assigned either peptide IV or Placebo IV. At each dose level, there were 2 sentinel subjects, (1 active, 1 placebo), who were dosed at least 48 hours in advance of the other subjects in their respective group. Following review of safety data, including physical examination, vital signs, and review of adverse events from the first 2 subjects, enrolment in the cohort continued. All subjects who met eligibility criteria were confined to the clinical research unit from Day −2 through Day 3. At admission, physical examination, vital signs, 12 lead ECG and weight were obtained, medical and medication history were updated if necessary, safety blood tests (hematology and chemistry), urinalysis, urine drug screen and an alcohol breath test were repeated and a urine pregnancy test was done for women of childbearing potential.
as §1

## CC(C)[C@H](NC(=O)[C@H](Cc1c[nH]c2ccccc12)NC(=O)[C@H](CCCNC(=N)N)NC(=O)[C@H](CCCNC(=N)N)NC(=O)[C@@H](NC(=O)[C@@H](NC(=O)[C@H](CCCNC(=N)N)NC(=O)[C@@H](NC(=O)[C@@H](NC(=O)[C@H](CCCNC(=N)N)NC(=O)[C@H](CCCNC(=N)N)NC(=O)[C@H](Cc1c[nH]c2ccccc12)NC(=O)[C@@H](NC(=O)[C@H](CCCNC(=N)N)NC(=O)[C@H](CCCNC(=N)N)NC(=O)[C@@H](NC(=O)[C@H](CCCNC(=N)N)NC(=O)[C@H](CCCNC(=N)N)NC(=O)[C@@H](NC(=O)[C@H](Cc1c[nH]c2ccccc12)NC(=O)[C@H](CCCNC(=N)N)NC(=O)[C@@H](N)CCCNC(=N)N)C(C)C)C(C)C)C(C)C)C(C)C)C(C)C)C(C)C)C(C)C)C(=O)N[C@@H](CCCNC(=N)N)C(=O)N[C@@H](CCCNC(=N)N)C(N)=O [SEQ ID NO: 1] (H-RRWVRRVRRVWRRVVRVVRRWVRR-NH2)
Pooled SEQ ID NO: 1 (N = 29)
  Related TEAE Co[?], n participants: 0
  Related TEAE F[?], n participants: 0
  Related TEAE Nervous system disorders, n participants: 0
  Related TEAE O[?] (r38, respiratory SOC), n participants: 0
  Related TEAE Pain in extremity, n participants: 0
  Related TEAE Respiratory, thoracic and m[?] disorders, n participants: 0
  Related TEAE T[?], n participants: 0
  Related TEAE [?] headache, n participants: 0
  Related TEAE, occurrences (M): 12
  TEAE A[?] (r19, skin SOC), n participants: 0
  TEAE Blood and lymphatic system disorders, n participants: 0
  TEAE Constipation, n participants: 0
  TEAE D[?] contact, M occurrences: 3
  TEAE D[?] contact, n participants: 2
  TEAE Gastrointestinal disorders, M occurrences: 3
  TEAE Gastrointestinal disorders, n participants: 2
  TEAE General disorders and administration site conditions, M occurrences: 8
  TEAE General disorders and administration site conditions, n participants: 7
  TEAE Injury, [?] and procedural complications, % participants: 48.3%
  TEAE Injury, [?] and procedural complications, n participants: 14
  TEAE O[?] (r37, vascular SOC), M occurrences: 2
  TEAE O[?] (r37, vascular SOC), n participants: 1
  TEAE O[?] pain, n participants: 0
  TEAE Related (to study drug), M occurrences: 12
  TEAE Related (to study drug), n participants: 2
  TEAE Respiratory, thoracic and [?] disorders, n participants: 0
  TEAE Severity Grade 1, participants %: 82.8%
  TEAE Severity Grade 1, participants n: 24
  TEAE Skin reaction, M occurrences: 3
  TEAE Skin reaction, n participants: 2
  TEAE V[?] (r24, general SOC), M occurrences: 4
  TEAE V[?] (r24, general SOC), n participants: 3
  TEAE Vascular disorders, M occurrences: 5
  TEAE Vascular disorders, n participants: 3
  TEAE [?] (r26, general SOC), n participants: 0
  TEAE [?] (r39, vascular SOC), n participants: 0
  TEAE [?] (r44, nervous SOC), n participants: 0
  TEAE [?] (r52, blood SOC), n participants: 0
  TEAE, occurrences (M): 52
Pooled SEQ ID NO: 1 (N = 35)
  Participants With At Least 1 TEAE, n (%): 31 (88.6%)
  Participants With At Least 1 TEAE, occurrences m: 71 and 72
  Participants With At Least 1 Treatment-Related TEAE, n (%): 13 (37.1%)
  Participants With At Least 1 Treatment-Related TEAE, occurrences m: 23
  TEAE by system organ class: Blood and Lymphatic System Disorders, participants n (%): 0
  TEAE by system organ class: Gastrointestinal Disorders, occurrences m: 4
  TEAE by system organ class: Gastrointestinal Disorders, participants n (%): 3 (8.6%)
  TEAE by system organ class: General Disorders and Administration Site Conditions, occurrences m: 17
  TEAE by system organ class: General Disorders and Administration Site Conditions, participants n (%): 13 (37.1%)
  TEAE by system organ class: Infections and Infestations, occurrences m: 1
  TEAE by system organ class: Infections and Infestations, participants n (%): 1 (2.9%)
  TEAE by system organ class: Injury, Poisoning, and Procedural Complications, occurrences m: 24
  TEAE by system organ class: Injury, Poisoning, and Procedural Complications, participants n (%): 18
  TEAE by system organ class: Musculoskeletal and Connective Tissue Disorders, occurrences m: 6
  TEAE by system organ class: Musculoskeletal and Connective Tissue Disorders, participants n (%): 6 (17.1%)
  TEAE by system organ class: Nervous System Disorders, occurrences m: 6
  TEAE by system organ class: Nervous System Disorders, participants n (%): 6 (17.1%)
  TEAE by system organ class: Respiratory, Thoracic, and Mediastinal disorders, participants n (%): 0
  TEAE by system organ class: Skin and Subcutaneous Tissue Disorders, occurrences m: 9
  TEAE by system organ class: Skin and Subcutaneous Tissue Disorders, participants n (%): 7 (20.0%)
  TEAE by system organ class: Vascular Disorders, occurrences m: 5
  TEAE by system organ class: Vascular Disorders, participants n (%): 3 (8.6%)
  TEAE severity Grade 1, occurrences m: 64
  TEAE severity Grade 1, participants n (%): 30 (85.7%)
  TEAE severity Grade 2, occurrences m: 8
  TEAE severity Grade 2, participants n (%): 5 (14.3%)
  TEAE severity Grade 3, participants n (%): 0
  TEAE severity Grade 4, participants n (%): 0
